Test results: US11540515B2, “Use of dialkoxybenzenes for control of honey bee mite varroa destructor” (Simon Fraser University, priority 2018, dated 2023)
Entries after “also recorded” stand apart in the source; their conditions may differ.

Tests used:
[1] = system: Varroa mites phoretic on young bees; experiment: Example 2 assay on mites phoretic on young bees (mite fall); format: in vivo, Varroa destructor; conditions: 100 microgram/μl solution and dilutions; end of experiment
Method: (§1) The experiments were conducted in glass petri dish under control environment as described above in Example 1. Two sets of experiments were conducted compound 3c{3,6}:
(§2) 2. Assay on mites phoretic on young bees. In this experiment 100 microgram/μ1 solution and its dilutions were used. Two mites were placed on each living young bee.
(§3) In the second assay the percentage of mites dropping from bees as function of time was measured (FIG. 2).

[2] = system: Varroa foreleg; experiment: Electroantennography (EAG) on Varroa foreleg stimulated with nurse bee headspace odor; parameters: species or system Varroa destructor
Description: In the electroantennography (EAG), the Varroa foreleg or bee antennae were used for the assay. The organs were stimulated by puffs of nurse honeybee odor, or clean air (control). Briefly, once a foreleg or bee antenna preparation was found responsive to a positive stimulus, the tested chemical was blown over the leg/antenna with or without positive stimuli. Headspace of five nurse bees was used as a positive stimulus. This stimuli were selected for Varroa following the procedure described, for example, in Eliash, N. et al., (2014) PLoS One, (2014) 9(12): e116127, incorporated herein by reference in its entirety, and following dose response tests on nurse antennae challenged with headspace of 1, 5 and 10 nurse or forager bees. Electrophysiological responses of isolated Varroa foreleg and bee antennae were recorded using Synthech equipment, and the order of stimuli was as explained in Singh, K. N. et al., (2014) Apidologie, 46: 380-391, incorporated herein by reference in its entirety. The response amplitude was recorded for each stimulus and normalized relative to air.

[3] = system: Varroa mites; experiment: Evaluation of acaricidal effect: emerging bees loaded with Varroa mites in glass petri dish, compound on Parafilm; format: in vivo, Varroa destructor
Method: The effect of the compounds was checked in free moving-mites freshly collected from the bottom board using fine paint brush. All collected Varroa were kept on emerging bees at room temperature until the experiment.
Compounds (code-labeled, Table 1) were prepared in hexane:ethyl acetate (1:1) in 10 mM concentration according to instructions. Dilutions only of compound “A” was prepared. […] This setup enabled the testing of all the compounds and to save the mites.
The assay was conducted in glass petri dish (90 mm diameter and 17 mm deep glass) containing moistened filter paper. Five emerging bees loaded with two Varroa mites were put into each plate. The bees were provided with candy (60% of pollen and 40% sugar). 10 μl or 30 μl volume of each compound or control mix was placed on Parafilm paper (5×5 cm) on the plates cover.

[4] = system: young bees; experiment: Example 2 assay on mites phoretic on young bees: condition of the bees; format: in vivo, Apis mellifera; conditions: end of experiment
Method: as §1, §2, §3

[5] = system: Varroa mites in honey bee colony; experiment: Colony test with solid 3c{3,6} in organza bags; format: in vivo, Varroa destructor; conditions: after each addition of solid compound in sachets
Method: Colony test. One colony of two supers was treated with solid 3c{3,6}, delivered in organza bags. The colony was otherwise healthy (apart from having Varroa mites), and the bee cluster reached over both boxes. Above the top box was placed a queen excluder and a top-feeding box. The following treatments were done: i) Day 1: 4×60 mg with bags placed above the cluster in the top box (below the queen excluder) only; ii) After 30 days: 4×60 mg with bags placed above the cluster in the top box (below the queen excluder) only; iii) After an additional 14 days, 4×100 mg with two bags placed on top of the lower box (i.e. between the two boxes) and two bags placed on top of the cluster on the top box (just below the queen excluder) iv) After an additional 7 days, 4×100 mg was added and the bags from the previous week were kept in. On the third treatment two Pasteur pipettes with Porapak (wedged between glass wool plugs in the pipette) were installed, one in the middle of the top cluster, the other on the edge of the cluster. These were removed. The colony was fitted with a screened bottom platform and a white Varroa counting drawer underneath the screen. Mites on the counting drawer board were counted every few days.
Porapak cartridges were extracted with hexane:ethyl acetate (4:1) with 40 ng/μL of 1,4-dimethoxybenzene as internal standard. […]

[6] = system: Varroa destructor mites; experiment: Example 3 mite paralysis/death in the absence of bees; format: in vivo; conditions: no bees
Method: Experiments were performed in the dishes: i) dose response assays with a single compound at different doses of compound on the Parafilm (1 ng, 10 ng, 100 ng, 1 μg, 10 μg, 100 μg, 1 mg and 10 mg), ii) a screen with six compounds, all at a 1 mg dose, iii) an assay with blends of compounds 3c{3,6} and 3c{6,6}, and iv) one assay without bees (only to check for mite paralysis and death), with compounds 3c{3,6} and 3c{6,6}(pure or 1:1 blend), at 0.5 and 1 mg doses.
Compounds 3c{3,6}, 3c{6,6} were tested on mites in the absence of bees, alone and as a 1:1 blend. Mite paralysis and death were checked every 30 min, up to 4.5 h after initial exposure. Four doses were tested: 0.2, 0.5, 1 and 10 mg.

[7] = system: Varroa mites; experiment: Example 6 behavioral dose response bio-assays of Varroa mites; format: in vivo
Description: Foragers were collected at the entrance of one or more honey bee hives by aspiration into a jar, when bees were flying back to the colony.
Initially, nurses were collected from an open brood frame of a honey bee hive. Bees apparently attending the brood were targeted for collection. As time passed and temperatures started to drop no open brood was observed, therefore subsequent collections targeted bees around sealed brood. At the end of the sampling period no sealed brood was present, so bees taken from the middle frame of a brood chamber were considered nurses.
Both foragers and nurses were immediately transferred to individual plastic cages (118×98×81 mm: H×W×D), fed with syrup (2:1) and kept overnight in an incubator at 30° C. and 70% RH. Next day, cages were inspected for any dead bees to be removed before freeze killing the bees on dry ice.
For Varroa mite collection, adult bees were taken from the brood chamber's central frames of a mite-infested hive using a glass jar. Bees were fed with syrup (2:1), and kept in an incubator at 30° C. and 70% RH until needed. First collections were made from frames with open and sealed brood, later only from sealed brood frames.
Mite-infested bees in the glass jar were dusted with icy sugar and shaken over a large plastic weighing boat. Dislodged Varroa were immediately transferred with a fine paint brush to a wet filter paper in a plastic petri dish to avoid desiccation. Individual mites were placed then onto the middle of a glass petri dish bottom (10 cm diameter) with a fresh freeze-killed forager or nurse bee on opposite sides of the plate. Synthesized compounds were applied onto a 1 cm^2 Parafilm square attached to the center of the petri dish cover's inner face, Hexane was used as control.
The bio-assays with a forager and a nurse bee, Varroa mite, and synthesized compounds were set in glass petri dishes placed into an incubator at 30° C. and 70% relative humidity. […] Mite paralysis and death were recorded after 3 h and 5 h.

C=CCOc1ccc(OCCC)cc1 [3c{3,6}, 1-allyloxy-4-propoxybenzene]
mites dropping from bees as function of time (FIG. 2) [1]: dropped dead off the bees | Varroa foreleg responses towards head space odor of nurse bees [2]: decreases | miticidal effect of dilutions ([3]; dilutions of 10 mM solution, any concentration): no miticidal effect | acaricidal effect ([3]; highest amount tested (30 μl), end of 24 h): clear acaricidal effect | condition of bees [4]: remained in perfect shape | number of mites found on the bottom board per day [5]: spike in the number of mites | mite paralysis+death ([6]; 0.2 mg, 4.5 h): 40% | mite paralysis+death ([6]; 0.5 mg, 4.5 h): 80% | mite paralysis or death ([6]; 1 mg, up to 4.5 h): 100% | mite paralysis or death ([6]; 10 mg, 4.5 h): 100% | mites dead ([7]; 100 μg): half of the mites dead | mite paralysis/mortality ([7]; 1 mg): 100% | mite paralysis/mortality (words) ([7]; 1 mg): total effectivity; also recorded: all mites | doses at which mites were paralyzed or killed ([7]; FIG. 9 / FIG. 10): ≥ 10 µg
